Assay results as given in US9814236B2, “Agricultural or horticultural chemical, method of controlling plant diseases, and product for controlling plant diseases” (Kureha Corporation, priority 2013, dated 2017).
Read-outs that look alike come from different tables or passages of the source.

Key:
Format in all cases: cell-based
[1] = tested on: wheat damping off (Gaeumannomyces graminis); assay: In vitro antimicrobial activity test on PDA agar plates, 20° C., three days (Test Example 2)
Text: (§1) Additionally, in the above formula, R represents a fungal expansion suppression rate (%), dc represents the diameter of a colony on an untreated plate, and dt represents the diameter of a colony on an chemical-treated plate.
(§2) Inhibition rate during mixed use (theoretical value)=α+((100−α)×β)/100, note that, in the formula above, α and β respectively represent the inhibition rates of the compounds during single use of the compounds.
In the present test example, the antimicrobial properties of a mixed formulation of compound (1) and bixafen on wheat damping off (Gaeumannomyces graminis) were tested.
Meanwhile, wheat damping off was punched out from the periphery of a colony of wheat damping off using a cork borer having a diameter of 4 mm, and inoculated onto the PDA agar plates in which the chemical(s) was(were) mixed.

[2] = tested on: wheat leaf blight (Septoria tritici); assay: In vitro antimicrobial activity test on PDA agar plates, 20° C., three days (Test Example 1)
Description: In the present test example, the antimicrobial properties of a mixed formulation of compound (1) and bixafen on wheat leaf blight (Septoria tritici) were tested.
as §1, §2

[3] = tested on: wheat leaf blight (Septoria tritici); assay: In vitro antimicrobial activity test on PDA agar plates, 25° C., 14 days (Test Examples 4 to 7)
Description: as §1, §2
Testing and determination were performed in the same manner as in Test Example 4 except for using the thiophanate-methyl in place of the boscalid.
Test and determination were performed in the same manner as in Test Example 4 except for using the chlorothalonil in place of the boscalid.

[4] = tested on: gray mold disease (Botrytis cinerea); assay: In vitro antimicrobial activity test on PDA agar plates, 20° C., two days (Test Examples 3, 8); details: Test Example 8
Description: as §1, §2
Test and determination were performed in the same manner as in Test Example 3 except for using the penthiopyrad in place of the isopyrazam.

[5] = tested on: gray mold disease (Botrytis cinerea); assay: as above; details: Test Example 3

## Cn1cc(C(=O)Nc2ccc(F)cc2-c2ccc(Cl)c(Cl)c2)c(C(F)F)n1 [Bixafen, bixafen]
[1]; Bixafen 0.0393 ppm alone
  Fungal growth inhibition rate (%) Measured value: 0%
[1]; Bixafen 0.1575 ppm alone
  Fungal growth inhibition rate (%) Measured value: 3%
[1]; Bixafen 0.63 ppm alone
  Fungal growth inhibition rate (%) Measured value: 4%
[1]; Bixafen 2.5 ppm alone
  Fungal growth inhibition rate (%) Measured value: 29%
[2]; Bixafen 0.0393 ppm alone
  Fungal growth inhibition rate (%) Measured value: 0%
[2]; Bixafen 0.1575 ppm alone
  Fungal growth inhibition rate (%) Measured value: 6%
[2]; Bixafen 0.63 ppm alone
  Fungal growth inhibition rate (%) Measured value: 31%
[2]; Bixafen 2.5 ppm alone
  Fungal growth inhibition rate (%) Measured value: 54%

## O=C(Nc1ccccc1-c1ccc(Cl)cc1)c1cccnc1Cl [Boscalid, boscalid]
[3]; Zymoseptoria tritici, 4TO7, Test Example 4, Boscalid 0.0393 ppm alone, read-out: Fungal growth inhibition rate (%) Measured value
  inhibition at 0.0393 ppm: 0%
[3]; Zymoseptoria tritici, 4TO7, Test Example 4, Boscalid 0.1575 ppm alone, read-out: Fungal growth inhibition rate (%) Measured value
  inhibition at 0.1575 ppm: 0%
[3]; Zymoseptoria tritici, 4TO7, Test Example 4, Boscalid 0.63 ppm alone, read-out: Fungal growth inhibition rate (%) Measured value
  inhibition at 0.63 ppm: 31%
[3]; Zymoseptoria tritici, 4TO7, Test Example 4, Boscalid 2.5 ppm alone, read-out: Fungal growth inhibition rate (%) Measured value
  inhibition at 2.5 ppm: 49%
[3]; Zymoseptoria tritici, 4TO7, Test Example 4, Boscalid 10 ppm alone, read-out: Fungal growth inhibition rate (%) Measured value
  inhibition at 10 ppm: 100%

## N#Cc1c(Cl)c(Cl)c(Cl)c(C#N)c1Cl [Chlorothalonil, chlorothalonil]
[3]; Zymoseptoria tritici, 4TO7, Test Example 6, Chlorothalonil 0.010 ppm alone, read-out: Fungal growth inhibition rate (%) Measured value
  inhibition at 0.01 ppm: 0%
[3]; Zymoseptoria tritici, 4TO7, Test Example 6, Chlorothalonil 0.039 ppm alone, read-out: Fungal growth inhibition rate (%) Measured value
  inhibition at 0.039 ppm: 0%
[3]; Zymoseptoria tritici, 4TO7, Test Example 6, Chlorothalonil 0.156 ppm alone, read-out: Fungal growth inhibition rate (%) Measured value
  inhibition at 0.156 ppm: 0%
[3]; Zymoseptoria tritici, 4TO7, Test Example 6, Chlorothalonil 0.625 ppm alone, read-out: Fungal growth inhibition rate (%) Measured value
  inhibition at 0.625 ppm: 3%
[3]; Zymoseptoria tritici, 4TO7, Test Example 6, Chlorothalonil 2.5 ppm alone, read-out: Fungal growth inhibition rate (%) Measured value
  inhibition at 2.5 ppm: 30%

## COC(=O)C1(C)CCC(Cc2ccc(Cl)cc2)C1(O)Cn1cncn1 (stereo not drawn) [Compound (1), 3-(4-chlorobenzyl)-2-hydroxy-1-methyl-2-(1H-1,2,4-triazol-1-ylmethyl) cyclopentane carboxylic acid methyl]
[3]; Test Example 4, Compound (1) 0.02 ppm alone
  Fungal growth inhibition rate (%) Measured value: 0%
[3]; Test Example 5, Compound (1) 0.005 ppm alone
  Fungal growth inhibition rate (%) Measured value: 23%
[3]; Test Example 6, Compound (1) 0.005 ppm alone
  Fungal growth inhibition rate (%) Measured value: 81%
[3]; Test Example 7, Compound (1) 0.02 ppm alone
  Fungal growth inhibition rate (%) Measured value: 7%
[4]; Compound (1) 0.078 ppm alone
  Fungal growth inhibition rate (%) Measured value: 13%
[1]; Compound (1) 0.005 ppm alone
  Fungal growth inhibition rate (%) Measured value: 0%
[2]; Compound (1) 0.005 ppm alone
  Fungal growth inhibition rate (%) Measured value: 0%
[5]; Compound (1) 0.078 ppm alone
  Fungal growth inhibition rate (%) Measured value: 4%

## Cn1cc(C(=O)Nc2ccccc2-c2cc(F)c(F)c(F)c2)c(C(F)F)n1 [Fluxapyroxad, fluxapyroxad]
[3]; Test Example 7, Fluxapyroxad 0.04 ppm alone
  Fungal growth inhibition rate (%) Measured value: 11%
[3]; Test Example 7, Fluxapyroxad 0.16 ppm alone
  Fungal growth inhibition rate (%) Measured value: 34%
[3]; Test Example 7, Fluxapyroxad 0.63 ppm alone
  Fungal growth inhibition rate (%) Measured value: 74%

## CC(C)C1C2CCC1c1c(NC(=O)c3cn(C)nc3C(F)F)cccc12 (stereo not drawn) [Isopyrazam, isopyrazam]
[5]; Isopyrazam 0.0393 ppm alone
  Fungal growth inhibition rate (%) Measured value: 1%
[5]; Isopyrazam 0.1575 ppm alone
  Fungal growth inhibition rate (%) Measured value: 9%
[5]; Isopyrazam 0.63 ppm alone
  Fungal growth inhibition rate (%) Measured value: 23%
[5]; Isopyrazam 2.5 ppm alone
  Fungal growth inhibition rate (%) Measured value: 35%
[5]; Isopyrazam 10 ppm alone
  Fungal growth inhibition rate (%) Measured value: 69%

## CC(C)CC(C)c1sccc1NC(=O)c1cn(C)nc1C(F)(F)F (stereo not drawn) [Penthiopyrad, penthiopyrad]
[4]; Botrytis cinerea, Penthiopyrad 0.63 ppm alone, read-out: Fungal growth inhibition rate (%) Measured value
  inhibition at 0.63 ppm: 31%
[4]; Botrytis cinerea, Penthiopyrad 2.50 ppm alone, read-out: Fungal growth inhibition rate (%) Measured value
  inhibition at 2.5 ppm: 61%
[4]; Botrytis cinerea, Penthiopyrad 10.00 ppm alone, read-out: Fungal growth inhibition rate (%) Measured value
  inhibition at 10 ppm: 93%

## COC(=O)NC(=S)Nc1ccccc1NC(=S)NC(=O)OC [Thiophanate-methyl, thiophanate-methyl]
[3]; Zymoseptoria tritici, 4TO7, Test Example 5, Thiophanate-methyl 0.010 ppm alone, read-out: Fungal growth inhibition rate (%) Measured value
  inhibition at 0.01 ppm: 0%
[3]; Zymoseptoria tritici, 4TO7, Test Example 5, Thiophanate-methyl 0.039 ppm alone, read-out: Fungal growth inhibition rate (%) Measured value
  inhibition at 0.039 ppm: 0%
[3]; Zymoseptoria tritici, 4TO7, Test Example 5, Thiophanate-methyl 0.156 ppm alone, read-out: Fungal growth inhibition rate (%) Measured value
  inhibition at 0.156 ppm: 0%
[3]; Zymoseptoria tritici, 4TO7, Test Example 5, Thiophanate-methyl 0.625 ppm alone, read-out: Fungal growth inhibition rate (%) Measured value
  inhibition at 0.625 ppm: 76%
[3]; Zymoseptoria tritici, 4TO7, Test Example 5, Thiophanate-methyl 2.5 ppm alone, read-out: Fungal growth inhibition rate (%) Measured value
  inhibition at 2.5 ppm: 100%
